{"source": "paper PMC9027532", "about": "“Preclinical Pharmacokinetic Studies of a Novel Diuretic Inhibiting Urea Transporters” (Molecules, 2022)", "assay": "in vitro", "assay_type": "in vitro ADME", "conditions": "plasma", "method": "The plasma protein binding (PPB) and blood plasma ratio (BPR) are crucial parameters influencing the drug distribution and elimination in plasma. The PPB profile of 25a was evaluated by equilibrium dialysis, a classic method to assess the interactions of small molecules with proteins. The PPB of 25a was tested at 50, 500, and 2500 ng/mL (Table 7). […] When considering the allometric scaling of PK parameters, the species difference of protein binding between humans and rats should be considered.\nThe plasma protein binding (PPB) ratio of 25a was assessed via equilibrium dialysis in SD rats and human plasma. Four hundred microliters of plasma containing 50, 500, or 2500 ng/mL 25a were loaded into the dialysis bags (plasma side), and the bags were placed into tubes containing 4 mL of the dialysis buffer (buffer side). The tubes were then rotated at approximately 100 rpm in a humidified incubator with 5% CO2 at 37 ± 1 °C for 5 h.\nAfter the 5 h dialysis, aliquots of 50 μL samples were taken from both the buffer and the plasma sides. An equal volume of the opposite blank matrix (buffer or plasma) was added to each sample to reach a final volume of 100 μL with a volume ratio of plasma to dialysis buffer at 1:1 (v/v). […] The PPB ratio (%) was calculated by PPB% = 100% × (1 − Conc.buffer side/Conc.plasma side).", "data": [{"smiles": "CC(=O)CC(c1ccccc1)c1c(O)c2ccccc2oc1=O", "note": "(stereo not shown) [warfarin]", "values": [{"measurement": "fraction unbound at 5 h", "result": 0.015}]}]}
